Measurements from patent US10662124B2, “Fertilizer composition containing oxidized glutathione and fertilizer element for foliar application” (Kaneka Corporation, priority 2015, dated 2020).

Legend:
[1] = system: Lettuce seedlings (Green leaf lettuce, Sakata Seed Corporation); assay: Example 2: effects of application on leaf surface, lettuce seedling-raising test; format: in vivo; conditions: for Weight (fresh weight, average, of the terrestrial parts): 2 weeks, n=3; for Growth rate (fresh weight of terrestrial parts relative to Control group): Control group = 100
Protocol: (§1) Lettuce seedlings (Green leaf lettuce, Sakata Seed Corporation) were raised under the conditions described below.
(§2) Place: Inside a plant incubator
(§3) Soil: Black soil (40 ml/pot)
(§4) Light: 115 μmol m^−2 s^−1 (10,000 lux) (light period: 16 hours; dark period: 8 hours)
Number of tested plants (n): 3
(§5) Water supply: During the seedling-raising test, water was adequately supplied so as to prevent the soil in the pot from being dehydrated (about 20 ml/week).
Test groups: Four test groups: i.e., Control group, Comparative group 1, Comparative group 2, and Invention group, were provided as shown in Table 3 below.
(§6) Control group was tested through application of fertilizer elements (nitrogen, phosphorus, and potassium) only to soil without the application of GSSG.
(§7) In the case of Control group, soil was prepared to comprise nitrogen, phosphorus, and potassium in an amount of 40 mg each (120 mg in total per pot) in terms of N, P2O5, and K2O, respectively, at the time of sowing. Specifically, 40 ml of soil, 156 mg of ammonium sulfate, 66 mg of monobasic ammonium phosphate, and 80 mg of potassium sulfate were weighed and introduced into a container, these components were mixed to prepare a homogeneous composition, and the resultant was introduced into a pot. Ammonium sulfate used in the experiment contained 21% of nitrogen (in terms of N), and monobasic ammonium phosphate contained 11% of nitrogen (in terms of N) and 61% of phosphorus (in terms of P2O5), and potassium sulfate contained 50% of potassium (in terms of K2O) (based on the indication of each product).
(§8) Lettuce seeds were sowed in soil in the pot and the seedling-raising test was then initiated.
Comparative group 1 was tested through application of GSSG and a fertilizer elements (nitrogen, phosphorus, and potassium) only to soil.
The method for application of fertilizer elements to soil and the amount of application are as described above with reference to Control group.
GSSG was applied to soil with the addition of an aqueous solution of GSSG to soil. At the outset, an aqueous solution of GSSG (in terms of free GSSG, the same applies hereinbelow) dissolved at 300 ppm in water was prepared. Subsequently, the aqueous solution of GSSG was applied in an amount of 4 ml each (12 ml in total) three separate times at intervals of 3 days from 6 days after seedling raising was initiated. Thus, 3.6 mg of GSSG (in terms of free GSSG) was applied during the test period per pot. […]
In Invention group, soil was prepared to contain the fertilizer elements (i.e., 36 mg each of nitrogen, phosphorus, and potassium in terms of N, P2O5, and K2O, respectively, 108 mg in total per pot) at the time of sowing. Specifically, 40 ml of soil and, as fertilizer elements, 140.4 mg of ammonium sulfate, 59.4 mg of ammonium phosphate, and 72 mg of potassium sulfate, were weighed and introduced into a container, these components were mixed to prepare a homogeneous composition, and the resultant was then introduced into a pot.
GSSG was spray-applied to the leaf surface as described below. The finely-powdered water-soluble preparation (1) of the formulation A as described in Example 1 (33.8 mg) was dissolved in 12 ml of water to prepare an aqueous solution containing GSSG and fertilizer elements. […]

[2] = system: Lettuce seedlings (Green leaf lettuce, Sakata Seed Corporation); assay: Example 6: spray-application to leaf surface with different amounts of fertilizer elements, lettuce seedling-raising test; format: in vivo
Protocol: as §1, §2, §3, §4
Number of tested plants (n): 4
as §5
Test groups: […] test groups: i.e., Control group, Comparative group 7, Formulation group 1 (15 parts of the fertilizer), Formulation group 2 (30 parts of the fertilizer), Formulation group 3 (100 parts of the fertilizer), Formulation group 4 (150 parts of the fertilizer), Formulation group 5 (200 parts of the fertilizer), and Formulation group 6 (400 parts of the fertilizer), were provided as shown in Table 11 below.
as §6
as §7, with “contain” for “comprise”, “elements” for “components”, “N),” for “N), and”
as §8
Comparative group 7 was tested through application of GSSG to the leaf surface and fertilizer elements (nitrogen, phosphorus, and potassium) to soil. […]

Oxidized glutathione [GSSG]
Plant growth promotion versus Control group ([1]; Comparative group 1 (GSSG to soil) compared with Control group): plant growth is promoted | Weight (fresh weight, average, of the terrestrial parts) ([1]; GSSG applied to soil, 3.6 mg per pot in three applications, fertilizer elements to soil): 90 mg | Growth rate (fresh weight of terrestrial parts relative to Control group) ([1]; GSSG applied to soil, 3.6 mg per pot, fertilizer elements to soil): 130% | Growth rate (fresh weight of terrestrial parts relative to Control group) ([1]; sprayed to the leaf surface three times, 12 ml in total per pot (3.5-3.6 mg GSSG)): 149% | Weight (fresh weight, average, of the terrestrial parts) ([1]; sprayed to the leaf surface three times, 12 ml in total per pot (3.5-3.6 mg GSSG), remaining fertilizer elements to soil): 103 mg | Weight (fresh weight, average, of the terrestrial parts) ([2]; 2 weeks, n=4, 3.5 mg GSSG with 0-400 parts of fertilizer per 100 parts GSSG sprayed to leaf surface three times, 12 ml in total per pot, rest of fertilizer to soil): 88 mg | Plant growth promotion versus Control group ([2]; Comparative group 7 compared with Control group): plant growth is promoted | Growth rate (fresh weight of terrestrial part relative to Control group) ([2]; Control group = 100, 3.5 mg GSSG with 0-400 parts of fertilizer per 100 parts GSSG sprayed to leaf surface): 131%
